Laboratory results as given in patent publication US20150297619A1, “METHODS AND COMPOSITIONS FOR PRESERVING THE MUCOSAL BARRIER” (priority 2014, published 2015).

Legend:
hemorrhagic shock [1] = assay: Hemorrhagic shock with enteral/IV/IP treatments: intestine, plasma and lung injury (Example 2); format: in vivo, rat
Experimental: Adult male Sprague Dawley rats (mean±standard deviation (SD) body weight 340±60 g, N=64, Harlan, Indianapolis, Ind.) were allowed food and water ad libitum prior to surgery. Rats were administered general anesthesia (xylazine, 4 mg/kg; ketamine 75 mg/kg IM) and remained anesthetized throughout the experiment. At the termination of experiments, rats were euthanized by infusion of B-Euthanasia IV (120 mg/kg). The femoral artery and vein were cannulated. Systolic, diastolic, heart rate, and mean arterial pressure (MAP) were recorded throughout the procedure using LabChart (AD Instruments, Dunedin, New Zealand).
Hemorrhagic Shock (HS) with Removal of Luminal Contents—Animals were grouped into no-HS (No-HS), HS with intestinal luminal contents flushed (HS-F), and HS without intestinal flush (HS-NF). No-HS animals were immediately sacrificed for tissue collection following cannulation. All other animals were subject to laparotomy before the intestine was exposed and gross morphology was photographically recorded. Enteral treatments were administered to the intestine before returning to the peritoneal cavity (Table 1). IV/IP injections were delivered following the intestinal injections.
Following the intestinal preparations, the animals were heparinized to minimize clotting in catheters and in shed blood samples (1 U/mL of calculated blood volume i.v.; assuming 6 mL blood volume per 100 g total body weight) before onset of hemorrhage. MAP was reduced to 30 mmHg by withdrawal of blood through the venous catheter (0.4 mL/min) with a 5 mL syringe. The initial 1 mL of blood drawn was collected, centrifuged (1000 g, 5 min), and the plasma was immediately frozen at […] for further analysis. The arterial pressure was monitored and adjusted by withdrawal/return of blood over the 90-min ischemic period. At the end of ischemia, the shed blood was returned to the animals (0.5 mL/min) plus 1 mL of saline (to replace the 1 mL of blood collected before shock).
Gross morphology images of the intestine were captured at the end of the reperfusion period. Post-HS blood was collected through the arterial catheter, spun (1000 g, 5 min), and the plasma was immediately frozen at […]. The animals were then euthanized and lung and jejunum specimen were snap frozen for homogenization or embedded in optimum cutting temperature (O.C.T.) (Saukura, Leiden, the Netherlands) for histological sectioning. Jejunum was chosen for analysis, as more intestinal hemorrhage is typically seen there than in the ileum in models of HS.
After hemorrhagic shock, bronchoalveolar lavage fluid (BALF) was collected by inserting an 18 gauge blunt needle into the left main bronchus of the left lung. The lunch was photographed to assess gross morphological damage. The images were blindly assessed for macroscopic lung damage. Scoring was as follows: 0, no visible lung damage and pink in color; 1, mostly pink in color with some dark red lesions starting to form around the central part of the lung near the trachea; 2, some pink color with more lesions forming and spreading throughout the lung; 3, dark red lesions through the majority of the lung surface; 4, complete lung damage in all parts of the organ surface.
To collect BALF fluid, saline (˜2.0 ml/lavage) was injected and recovered three times before centrifugation (1000 g, 5 min). Following the third wash, the lung was injected with O.C.T., embedded, and frozen. The total volume of recovered BALF fluid was measured and the fraction of saline recovered versus the amount injected was used to normalize all measurements.
Intestinal Hemorrhage—Segments of jejunum were mechanically homogenized by weight (10 ml per 1 g; 18,000 g, 20 min; stored at −80° C.) in 0.5% hexadecyltrimethyl-ammonium bromide (HTAB) in PBS (pH 6.0). Any luminal content present in the segment was included in the weighing and homogenization. […]

hemorrhagic shock [2] = assay: Hemorrhagic shock model with enteral pretreatment, unflushed intestine (Example 1); format: in vivo, rat; details: for lesions in the jejunum (gross morphology): enteral pretreatment, HS 90 min at 30 mmHg, 3 hours observation; for rate of MAP decrease during reperfusion: last 2 hours of reperfusion, mean±SD
Experimental: Hemorrhagic Shock Model—Hemorrhagic shock (HS) was used to study the ability of treatments, shown in the ex vivo portion of the study to preserve the barrier and protect the intestine in the absence of luminal content, to prevent intestinal injury after ischemia/reperfusion injury in vivo when luminal content is present. Following general anesthesia, the femoral artery and vein were cannulated. Systolic, diastolic, heart rate, and mean arterial pressure (MAP) were recorded throughout the procedure using LabChart (AD Instruments, Dunedin, New Zealand). Rats were randomly divided into the following groups: […] No-HS animals were cannulated and immediately sacrificed for tissue collection. In the HS groups, anesthetized rats were subjected to laparotomy and the intestine was exposed, and a “Pre-HS” image was captured. […] Extra caution was applied to avoid over-inflation of the intestine. After injection, the intestine was carefully returned to the peritoneal cavity and the wound was covered with moist gauze and plastic wrap to keep the animal warm. To prevent clotting in catheters and shed blood, animals were heparinized (1 U/ml i.v., assuming 6% blood volume per body weight) prior to inducing hemorrhagic shock. […] At the end of ischemia, the shed blood was returned to the animal (0.5 ml/min). […] Gross morphology images of the intestine were captured, “Post-HS” At the end of reperfusion, segments of intestine (jejunum; 10 cm from ligament of Treitz) were snap frozen for homogenization and embedded in O.C.T. (Tissue Tek). MPO Activity—Myeloperoxidase (MPO) activity in the intestine as a measure for neutrophil accumulation was selected as an index of reperfusion injury after hemorrhagic shock. Segments from the jejunum (about at the position of segment 2 in the ex vitro study) were homogenized with their native luminal contents (PBS pH 6.0 in 0.5% HTAB). 40 μl of 2 mg/ml intestine homogenate was added to 180 μl of PBS (pH 6.0) mixed with 0.167 mg/ml o-dianisidine dihydrochloride (Sigma-Aldrich) in duplicate and 0.001% H2O2 (w/v). Absorbance was measured kinetically at 450 nm every 5 minutes for 1 hour at 37° C. As negative controls, 180 μl of PBS (pH 6.0) was added to 20 μl of sample and the absorbance values of these samples were subtracted from the measurements with the substrate. The change in absorbance was linear within this period, and MPO activity is presented as the change in absorbance per minute per milligram of protein.

## O=C[C@H](O)[C@@H](O)[C@H](O)[C@H](O)CO [Glucose, glucose]
Hemorrhagic shock [1]; after HS
  MPO activity of intestinal homogenates: tended to be lower
  gross morphology of the intestine (microhemorrhages): microhemorrhages most severely
  macroscopic lung injury (lung injury score): trend in reduction
Hemorrhagic shock [1]; post-HS plasma, gel zymography
  plasma MMP-9 and neutrophil derived pro-MMP-9 activity: significantly more activity compared to HS+SAL
Hemorrhagic shock [2]
  lesions in the jejunum (gross morphology): had lesions form in the jejunum
  rate of MAP decrease during reperfusion: −0.21±0.13 mmHg/min

## NC[C@H]1CC[C@H](C(=O)O)CC1 [tranexamic acid]
Hemorrhagic shock [1]; after HS
  MPO activity of intestinal homogenates: tended to be lower
  gross morphology of the intestine (microhemorrhages): fewer regions with microhemorrhages
Hemorrhagic shock [1]; after HS, immunoblot
  lung VE-cadherin levels: significantly reduced
  lung VEGFR-2 levels: maintained
Hemorrhagic shock [2]
  lesions in the jejunum (gross morphology): had lesions form in the jejunum
  rate of MAP decrease during reperfusion: −0.27±0.16 mmHg/min
